Results as given in US20230047816A1 (priority 2018, published 2023).

These compounds were tested against Recombinant full length human PFKFB3 (Homo sapiens, UniProt Q16875) (assay: PFKFB3 kinase activity assay (ADP production, ADP-Glo)).
Recombinant full length human PFKFB3, sequence (Q16875 whole entry): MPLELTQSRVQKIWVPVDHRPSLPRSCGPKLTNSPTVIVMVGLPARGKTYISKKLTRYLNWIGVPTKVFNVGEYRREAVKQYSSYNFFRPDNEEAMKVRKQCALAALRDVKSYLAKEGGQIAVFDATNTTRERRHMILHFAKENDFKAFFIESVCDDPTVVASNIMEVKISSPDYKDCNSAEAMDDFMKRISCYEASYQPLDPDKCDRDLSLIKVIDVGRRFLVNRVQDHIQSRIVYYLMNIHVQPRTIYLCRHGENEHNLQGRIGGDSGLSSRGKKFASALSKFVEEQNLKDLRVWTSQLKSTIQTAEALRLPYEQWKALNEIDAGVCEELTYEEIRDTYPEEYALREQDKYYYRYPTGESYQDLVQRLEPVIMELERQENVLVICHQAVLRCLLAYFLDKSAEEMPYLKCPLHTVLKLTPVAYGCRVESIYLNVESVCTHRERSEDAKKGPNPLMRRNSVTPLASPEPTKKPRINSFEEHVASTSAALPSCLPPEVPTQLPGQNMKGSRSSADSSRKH

SMILES	IC50 [µM]
CC(C)OC(=O)c1ccc(-c2ccc(F)c(F)c2)cc1N1Cc2ccc(CO)cc2C1=O [compound 156, isopropyl 3′,4′-difluoro-3-(6-(hydroxymethyl)-1-oxoisoindolin-2-yl)biphenyl-4-carboxylate]	< 20
COC(=O)c1ccc(-c2ccc(F)c(F)c2)cc1N1Cc2ccc(CO)cc2C1=O [compound 157, methyl 3′,4′-difluoro-3-(6-(hydroxymethyl)-1-oxoisoindolin-2-yl)biphenyl-4-carboxylate]	< 20
O=C(O)c1ccc(-c2ccc(F)c(F)c2)cc1N1Cc2ccc(CO)cc2C1=O [compound 158, 3′,4′-difluoro-3-(6-(hydroxymethyl)-1-oxoisoindolin-2-yl)biphenyl-4-carboxylic acid]	5 to 20
CCOC(=O)c1ccc(-c2ccc(F)c(F)c2)cc1N1Cc2ccc(CO)cc2C1=O [compound 159, ethyl 3′,4′-difluoro-3-(6-(hydroxymethyl)-1-oxoisoindolin-2-yl)biphenyl-4-carboxylate]	< 20
NC(=O)c1ccc2c(c1)C(=O)N(c1cc(-c3ccc(F)c(F)c3)ccc1C(=O)O)C2 [compound 160, 3-(6-carbamoyl-1-oxoisoindolin-2-yl)-3′,4′-difluorobiphenyl-4-carboxylic acid]	5 to 20
O=C(O)c1ccc(-c2ccc(F)c(F)c2)cc1N1Cc2ccc(-c3nn[nH]c3CO)cc2C1=O [compound 161, 3′,4′-difluoro-3-(6-(5-(hydroxymethyl)-1H-1,2,3-triazol-4-yl)-1-oxoisoindolin-2-yl)biphenyl-4-carboxylic acid]	5 to 20
O=C(O)c1ccc(-c2ccc(F)c(F)c2)cc1N1Cc2ccc(-c3nn[nH]c3C(=O)c3ccccc3)cc2C1=O [compound 162, 3-(6-(5-benzoyl-1H-1,2,3-triazol-4-yl)-1-oxoisoindolin-2-yl)-3′,4′-difluorobiphenyl-4-carboxylic acid]	0.5 to 2
O=C(O)c1ccc(-c2ccc(F)c(F)c2)cc1N1Cc2ccc(-c3nn[nH]c3-c3ccccc3)cc2C1=O [compound 163, 3′,4′-difluoro-3-(1-oxo-6-(5-phenyl-1H-1,2,3-triazol-4-yl)isoindolin-2-yl)biphenyl-4-carboxylic acid]	0.5 to 2
NC(=O)c1[nH]nnc1-c1ccc2c(c1)C(=O)N(c1cc(-c3ccc(F)c(F)c3)ccc1C(=O)O)C2 [compound 164, 3-(6-(5-carbamoyl-1H-1,2,3-triazol-4-yl)-1-oxoisoindolin-2-yl)-3′,4′-difluorobiphenyl-4-carboxylic acid]	2 to 5
CN(C)C(=O)c1[nH]nnc1-c1ccc2c(c1)C(=O)N(c1cc(-c3ccc(F)c(F)c3)ccc1C(=O)O)C2 [compound 165, 3-(6-(5-(dimethylcarbamoyl)-1H-1,2,3-triazol-4-yl)-1-oxoisoindolin-2-yl)-3′,4′-difluorobiphenyl-4-carboxylic acid]	2 to 5
CCOC(=O)c1ccc(-c2ccc(F)c(F)c2)cc1N1C(=O)c2ccc(-c3cnn[nH]3)cc2C1=O [compound 167, ethyl 3-[1,3-dioxo-5-(1H-1,2,3-triazol-5-yl)-1,3-dihydro-2H-isoindol-2-yl]-3′,4′-difluoro[1,1′-biphenyl]-4-carboxylate]	< 20
CC(=O)OCCOC(=O)c1ccc(-c2ccc(F)c(F)c2)cc1N1C(=O)c2ccc(-c3cnn[nH]3)cc2C1=O [compound 168, 2-(acetyloxy)ethyl 3-[1,3-dioxo-5-(1H-1,2,3-triazol-5-yl)-2,3-dihydro-1H-isoindol-2-yl]-3′,4′-difluoro[1,1′-biphenyl]-4-carboxylate]	< 20
O=C(O)c1cc2c(cc1Br)C(=O)N(c1cc(-c3ccc(F)c(F)c3)ccc1C(=O)O)C2=O [compound 169, 6-bromo-2-(4-carboxy-3′,4′-difluoro[1,1′-biphenyl]-3-yl)-1,3-dioxo-2,3-dihydro-1H-isoindole-5-carboxylic acid]	< 0.5
